# PubChem BioAssay AID2060890 (Molecular Pharmacology Branch, DTP, NCI, 2025)
# Test system: LG0703-F948-PDC complex spheroid viability
# Assay: Anticancer human tumor LG0703-F948-PDC patient-derived lung adenocarcinoma cell line growth inhibition [RAS]
# Conditions: for IC50: curve of first compound; for viability, T/C: stronger effect = lower value
# In short: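 Tumour cells grown as complex spheroids with HUVEC endothelial cells and mesenchymal stem cells, treated with RAS pathway inhibitor combinations. Each agent spans half-log steps from near clinical Cmax, or 10 microM where Cmax is unknown.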
# [1] = second compound 0.000949 µM, first compound 0.0316 µM
# [2] = second compound 0.000949 µM, first compound 0.1 µM
# [3] = second compound 0.000949 µM, first compound 0.316 µM
# [4] = second compound 0.000949 µM, first compound 1 µM
# [5] = second compound 0.000949 µM, first compound 3.16 µM
# [6] = second compound 0.000949 µM, first compound 10 µM
# [7] = second compound 0.003 µM, first compound 0.0316 µM
# [8] = second compound 0.003 µM, first compound 0.1 µM
# [9] = second compound 0.003 µM, first compound 0.316 µM
# [10] = second compound 0.003 µM, first compound 1 µM
# [11] = second compound 0.003 µM, first compound 3.16 µM
# [12] = second compound 0.003 µM, first compound 10 µM
# [13] = second compound 0.00949 µM, first compound 0.0316 µM
# [14] = second compound 0.00949 µM, first compound 0.1 µM
# [15] = second compound 0.00949 µM, first compound 0.316 µM
# [16] = second compound 0.00949 µM, first compound 1 µM
# [17] = second compound 0.00949 µM, first compound 3.16 µM
# [18] = second compound 0.00949 µM, first compound 10 µM
# [19] = second compound 0.03 µM, first compound 0.0316 µM
# [20] = second compound 0.03 µM, first compound 0.1 µM
# [21] = second compound 0.03 µM, first compound 0.316 µM
# [22] = second compound 0.03 µM, first compound 1 µM
# [23] = second compound 0.03 µM, first compound 3.16 µM
# [24] = second compound 0.03 µM, first compound 10 µM
# [25] = second compound 0.0949 µM, first compound 0.0316 µM
# [26] = second compound 0.0949 µM, first compound 0.1 µM
# [27] = second compound 0.0949 µM, first compound 0.316 µM
# [28] = second compound 0.0949 µM, first compound 1 µM
# [29] = second compound 0.0949 µM, first compound 3.16 µM
# [30] = second compound 0.0949 µM, first compound 10 µM
# [31] = second compound 0.3 µM, first compound 0.0316 µM
# [32] = second compound 0.3 µM, first compound 0.1 µM
# [33] = second compound 0.3 µM, first compound 0.316 µM
# [34] = second compound 0.3 µM, first compound 1 µM
# [35] = second compound 0.3 µM, first compound 3.16 µM
# [36] = second compound 0.3 µM, first compound 10 µM
# 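Also: spheroids exposed to agents for 7 days.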
# 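For viability, T/C in this document: 100% = DMSO vehicle wells.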
smiles,measurement,setting,value
NC1c2ccccc2OC12CCN(c1cnc3c(N4CCCc5ncccc54)n[nH]c3n1)CC2 (centres undefined) + CCn1c(-c2cc(N3CCN(C)CC3)cnc2C(C)OC)c2c3cc(ccc31)-c1csc(n1)CC(NC(=O)C1CC1C)C(=O)N1CCCC(N1)C(=O)OCC(C)(C)C2,IC50,second compound 0.000949 µM,< 31.6 nM
same,IC50,second compound 0.003 µM,< 31.6 nM
same,IC50,second compound 0.00949 µM,< 31.6 nM
same,IC50,second compound 0.03 µM,< 31.6 nM
same,IC50,second compound 0.0949 µM,< 31.6 nM
same,IC50,second compound 0.3 µM,< 31.6 nM
same,"viability, T/C",[1],30.3%
same,"viability, T/C",[2],19.3%
same,"viability, T/C",[3],11%
same,"viability, T/C",[4],8.58%
same,"viability, T/C",[5],5.25%
same,"viability, T/C",[6],1.78%
same,"viability, T/C",[7],20.3%
same,"viability, T/C",[8],11.8%
same,"viability, T/C",[9],9.37%
same,"viability, T/C",[10],8.15%
same,"viability, T/C",[11],3.56%
same,"viability, T/C",[12],1.82%
same,"viability, T/C",[13],14.5%
same,"viability, T/C",[14],7.88%
same,"viability, T/C",[15],5.28%
same,"viability, T/C",[16],4.34%
same,"viability, T/C",[17],2.68%
same,"viability, T/C",[18],2.25%
same,"viability, T/C",[19],8.5%
same,"viability, T/C",[20],6.42%
same,"viability, T/C",[21],4.71%
same,"viability, T/C",[22],2.66%
same,"viability, T/C",[23],2.29%
same,"viability, T/C",[24],2.1%
same,"viability, T/C",[25],6.81%
same,"viability, T/C",[26],4.57%
same,"viability, T/C",[27],4.01%
same,"viability, T/C",[28],2.85%
same,"viability, T/C",[29],3.37%
same,"viability, T/C",[30],1.78%
same,"viability, T/C",[31],3.46%
same,"viability, T/C",[32],4.3%
same,"viability, T/C",[33],3.62%
same,"viability, T/C",[34],2.74%
same,"viability, T/C",[35],1.58%
same,"viability, T/C",[36],1.7%
CC(Nc1ccc2c(c1)OCCn1cc(N3C(=O)OCC3C(F)F)nc1-2)C(N)=O (centres undefined) + CCn1c(-c2cc(N3CCN(C)CC3)cnc2C(C)OC)c2c3cc(ccc31)-c1csc(n1)CC(NC(=O)C1CC1C)C(=O)N1CCCC(N1)C(=O)OCC(C)(C)C2,IC50,second compound 0.000949 µM,136 nM
same,IC50,second compound 0.003 µM,< 31.6 nM
same,IC50,second compound 0.00949 µM,< 31.6 nM
same,IC50,second compound 0.03 µM,< 31.6 nM
same,IC50,second compound 0.0949 µM,< 31.6 nM
same,IC50,second compound 0.3 µM,< 31.6 nM
same,"viability, T/C",[1],66.8%
same,"viability, T/C",[2],55%
same,"viability, T/C",[3],37.9%
same,"viability, T/C",[4],22.5%
same,"viability, T/C",[5],16.8%
same,"viability, T/C",[6],8.97%
same,"viability, T/C",[7],38.7%
same,"viability, T/C",[8],31.1%
same,"viability, T/C",[9],20.2%
same,"viability, T/C",[10],12.6%
same,"viability, T/C",[11],8.64%
same,"viability, T/C",[12],3.86%
same,"viability, T/C",[13],20.7%
same,"viability, T/C",[14],16.5%
same,"viability, T/C",[15],7.46%
same,"viability, T/C",[16],5.56%
same,"viability, T/C",[17],4.28%
same,"viability, T/C",[18],1.67%
same,"viability, T/C",[19],10.8%
same,"viability, T/C",[20],8.93%
same,"viability, T/C",[21],4%
same,"viability, T/C",[22],3.07%
same,"viability, T/C",[23],1.45%
same,"viability, T/C",[24],1.14%
same,"viability, T/C",[25],8.21%
same,"viability, T/C",[26],5.47%
same,"viability, T/C",[27],3.07%
same,"viability, T/C",[28],2.1%
same,"viability, T/C",[29],1.39%
same,"viability, T/C",[30],0.7%
same,"viability, T/C",[31],6.47%
same,"viability, T/C",[32],4.12%
same,"viability, T/C",[33],2.78%
same,"viability, T/C",[34],2.27%
same,"viability, T/C",[35],1.25%
same,"viability, T/C",[36],0.71%
